Reference: patent publication US20230012172A1, “COMPOSITIONS AND METHODS FOR TREATMENT OF PLATINUM-BASED CHEMOTHERAPEUTIC RESISTANT TUMORS” (The George Washington University, priority 2020, published 2023)

Key:
[1] = system: IGROV1 CR cells; test: Cell viability assay (SRB) in IGROV1 CR cells; format: cell-based, human; details: for toxicity (cell viability): 150 nM, IGROVI CR cells
Procedure: (§1) Cell culture and resistance cell line establishment. IGROV1 cells, U2OS (HTB-96; ATCC), HEK293T (CRL-11268; ATCC) and SKOV3 cells (HTB-77; ATCC) were cultured at 37° C. in DMEM with 10% Fetal Bovine Serum (FBS). PEO1 (10032308; Sigma-Aldrich), PEO4 (10032309; Sigma-Aldrich), PEO14 (10032311; Sigma-Aldrich) and PE023 cells (10032313; Sigma-Aldrich) were cultured at 37° C. in RPMI-1640 with 10% FBS. OV90 (CRL-11732; ATCC) was cultured in medium containing 1:1 MCDB 105 (Sigma) and M199 (Sigma) supplemented with 10% FBS at 37 ° C. All the cells were cultured at in a humidified incubator with 5% CO2 atmosphere. Cisplatin resistant cell lines, including SKOV3 CR, IGROV1 CR and OV90 CR, were generated using an approach similar to that reported in Zhou et al., (2018) Oncogene 37, 3981-3997, the disclosure of which is incorporated herein in its entirety.
Cell viability assay. Cells were seeded at 3,000 cells/well in 96-well plates were treated with drugs, followed by incubation for 48 hours, after which cell viability was detected using Sulforhodamine B (SRB) assay (64). Absorbance at 510 nm was detected using a SpectraMax Reader (Molecular Devices) and analyzed with SoftMax Analysis Software (Molecular Devices). Combinational index (CI) values were calculated using CompuSyn software.

[2] = molecular target: T1, SENP1 (Homo sapiens, UniProt Q9P0U3); test: In vitro deSUMOylation assay with recombinant His-JAK2 and GST-SENP1; format: biochemical; parameters: made in house; host or cells: E. coli BL21 (DE3) for pET28a-JAK2; details: SUMOylated His-JAK2 incubated with GST-SENP1 and compound for 3 hours
T1 sequence (Q9P0U3 1-644): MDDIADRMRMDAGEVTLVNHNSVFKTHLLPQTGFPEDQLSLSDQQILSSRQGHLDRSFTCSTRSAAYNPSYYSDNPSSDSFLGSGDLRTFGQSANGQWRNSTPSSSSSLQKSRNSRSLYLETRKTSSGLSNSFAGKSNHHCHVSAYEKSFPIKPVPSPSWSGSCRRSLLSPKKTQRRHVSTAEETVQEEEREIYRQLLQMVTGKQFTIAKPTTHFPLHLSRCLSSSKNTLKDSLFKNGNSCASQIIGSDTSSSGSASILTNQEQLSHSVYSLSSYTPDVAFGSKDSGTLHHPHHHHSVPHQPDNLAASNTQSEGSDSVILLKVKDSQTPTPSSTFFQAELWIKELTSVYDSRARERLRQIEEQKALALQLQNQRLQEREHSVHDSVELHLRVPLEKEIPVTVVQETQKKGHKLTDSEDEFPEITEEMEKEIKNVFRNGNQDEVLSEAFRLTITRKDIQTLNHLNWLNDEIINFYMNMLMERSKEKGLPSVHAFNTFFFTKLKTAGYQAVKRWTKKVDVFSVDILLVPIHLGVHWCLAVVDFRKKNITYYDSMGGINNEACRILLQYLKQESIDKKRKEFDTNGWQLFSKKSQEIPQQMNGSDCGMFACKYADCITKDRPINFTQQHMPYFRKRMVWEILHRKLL
Procedure: To further determine whether SENP1 can directly deSUMOylate JAK2, in vitro deSUMOylation assays were performed by using purified recombinant His-JAK2 and GST-SENP1 proteins.
In vitro SUMOylation assay. The SUMOylation reactions were performed according to the manufacture's instruction (BML-UW8955-0001; ENZO). Briefly, 200 nM of purified HIS-JAK2 was suspended in reaction buffer (20 μl) containing Mg-ATP, SUMO E1, SUMO E2 and recombinant SUMOs. RanGAP1 (provided in the kit) was used as the substrate for positive control. The reaction was incubated at 37° C. for 60 minutes and terminated by using 20 μl of SDS loading buffer. […] The reactions were then subjected to Western blot to evaluate SUMOylation level.
Protein expression and purification. pET28a-JAK2 and its mutant was transformed in BL21 (DE3) E. coli cells by heat shot method at 42° C. and grown in Luria Broth (LB) at 37° C. E. coli cells were induced with 0.5 mM IPTG to induct protein expression. Cells were harvested by centrifugation at 5,000 g, 4° C. for 15 min and the pellet was resuspended in lysis buffer (20 mM Tris pH 7.9, 500 mM NaCl, 5 mM imidazole, 2 mM DTT and 1× protease inhibitor cocktail). Cells were then sonicated and centrifuged at 14,000 g, 4° C. for 15 min. 1 ml of Ni-NTA was added to the supernatant and incubated at 4° C. with end-to-end mixing for 2 hours and subjected to a column. The Ni-NTA resin was washed with 10 ml wash buffer (20 mM Tris pH 7.9, 250 mM NaCl, 15 mM Imidazole and 0.5 mM DTT) and eluted with 1 ml elution buffer (20 mM Tris pH 7.9, 250 mM NaCl and 1 M imidazole). The elute was then concentrated by using a protein concentrator (Thermo Scientific™ Pierce™) and resuspend in dialysis buffer (50 mM Tris pH 7.9, 50 mM NaCl, 2 mM DTT, and 10% glycerol). The purified protein was stored at −80° C. pGEX-4T1-SENP1 and its mutant were purified using following buffers: lysis buffer (1 mM DTT, and lx protease inhibitor cocktail, 800 mM NaCl, 5 mM EDTA, 50 mM Tris-pH8.0, 0.1% Triton x-100), wash buffer (800 mM NaCl, 5 mM EDTA, 50 mM Tris-pH8.0, 0.1% Triton x-100), elution buffer (40 mM glutathione, 800 mM NaCl, 5 mM EDTA, 50 mM Tris-pH8.0, 0.1% Triton x-100), dialysis buffer (50 mM Tris pH 7.9, 50 mM NaCl, 2 mM DTT, and 10% glycerol).

[3] = system: SKOV3 CR cells; test: Cell viability assay (SRB) in SKOV3 CR cells; format: cell-based; details: for synergistic effects with cisplatin (combination index): SKOV3 CR cells
Procedure: as §1, with “Sigma-Aldrich) and PE023 cells (10032313;” left out, “ATCC) was cultured in medium containing 1:1 MCDB 105 (Sigma) and M199 (Sigma) supplemented with 10% FBS at 37 ° C.” left out, “entirety. Cell viability assay. Cells were seeded at 3,000 cells/well in 96-well plates were treated with drugs, followed by incubation for 48 hours, after which cell viability was detected using Sulforhodamine B (SRB) assay (64). Absorbance at 510 nm was detected using a SpectraMax Reader (Molecular Devices) and analyzed with SoftMax Analysis Software (Molecular Devices). Combinational index (CI) values were calculated using CompuSyn software.” for “entirety.”

[4] = system: SENP1; test: SENP1 IHC in IGROV1 xenograft tumors of carboplatin-treated mice; format: in vivo, immunodeficient nude mice; details: carboplatin 20 mg/kg or 60 mg/kg
Procedure: (§2) The SENP1 protein level was increased while JAK2 SUMOylation was decreased correspondingly in IGROV1 cells treated with cisplatin in a time and dose dependent manner (FIGS. 4F and 4G). To further test the SENP1 induction by platinum drugs in vivo, SENP1 protein levels were measured in IGROV1 xenograft tumors using immunohistochemistry (IHC) in implanted immunodeficient nude mice that were treated with carboplatin at 20 mg/kg or 60 mg/kg after tumor was developed.
Immunohistochemistry. Immunohistochemical (IHC) staining and scoring were performed similar to that previously described n Zhou et al., (2018) Oncogene 37, 3981-3997, the disclosure of which is incorporated herein in its entirety. The quantification of immunohistochemical staining was scored blindly at least by two independent observers.

[5] = system: SENP1; test: SENP1 protein and JAK2 SUMOylation in IGROV1 cells treated with cisplatin (Western blot); format: cell-based, human; details: time and dose dependent
Procedure: as §2

[6] = system: JAK2; test: Cell-free kinase assay with JAK2 purified from treated cells, recombinant STAT3 substrate; format: biochemical; details: JAK2 purified from IGROV1 cells treated with inhibitor
Procedure: Phosphorylation of STAT3 at tyrosine 705 (Y705) by JAK2 is one of the most important and well established cytoplasmic functions of JAK2. To determine whether accumulation of JAK2 in nucleus by depleting SENP1 affected JAK2 cytoplasmic activity, phosphorylated STAT3 (pSTAT3 (Y705)) levels was evaluated in SENP1 depleted IGROV1 cells.
To this end, cell-free kinase assays were performed using JAK2 purified from cells treated with siSENP1 or UAMMC9.

Structure (SMILES): CC1CCC2(C(=O)NCC(=O)N(C)CCO)CCC3(C)C(=CCC4C5(C)CCC(O)C(C)(C)C5CCC43C)C2C1C (stereo not drawn) [UAMMC9]
- decrease of the IC50 of cisplatin ([1]; 150 nM UAMMC9, IGROVI CR cells): 4.19 fold

Structure (SMILES): C[C@@H]1CC[C@]2(C(=O)O)CC[C@]3(C)C(=CC[C@@H]4[C@@]5(C)CC[C@H](O)C(C)(C)[C@@H]5CC[C@]43C)[C@@H]2[C@]1(C)O [pomolic acid]
- inhibited SENP1 activity in vitro [2]: inhibited
- synergistic effects with cisplatin (combination index) [3]: synergistic effects

Structure (SMILES): CC1(C)CC[C@]2(C(=O)O)[C@H](O)C[C@]3(C)C(=CC[C@@H]4[C@@]5(C)CC[C@H](O)C(C)(C)[C@@H]5CC[C@]43C)[C@H]2C1 [echinocyslic acid]
- synergistic effects with cisplatin (combination index) [3]: synergistic effects

Structure (SMILES): C[C@@H]1CC[C@]2(C(=O)O)CC[C@]3(C)C(=CC[C@@H]4[C@@]5(C)C[C@@H](O)[C@H](O)C(C)(C)[C@@H]5CC[C@]43C)[C@@H]2[C@]1(C)O [tormentic acid]
- inhibited SENP1 activity in vitro [2]: inhibited
- synergistic effects with cisplatin (combination index) [3]: synergistic effects

Structure (SMILES): N.N.O=C([O-])C1(C(=O)[O-])CCC1.[Pt+2] [Carboplatin, carboplatin]
- SENP1 expression in ovarian tumors (IHC) [4]: significant increase

Structure (SMILES): C[C@H]1[C@H](C)CC[C@]2(C(=O)O)CC[C@]3(C)C(=CC[C@@H]4[C@@]5(C)C[C@@H](O)[C@H](O)C(C)(C)[C@@H]5CC[C@]43C)[C@H]12 [corosolicin acid]
- synergistic effects with cisplatin (combination index) [3]: synergistic effects

Structure (SMILES): N.N.[Cl][Pt][Cl] [Cisplatin, cisplatin]
- IC50 ([3]; cisplatin alone or with 150 nM UAMMC, read-out: Cisplatin IC4 with 150 nM of UAMMCs on SKOV3 CR cells, IC50): 12.4 µM
- JAK2 SUMOylation [5]: decreased
- SENP1 protein level [5]: increased
- IC50 ([1]; cisplatin alone or with 150 nM UAMMC, read-out: Cisplatin IC50 with 150 nM of UAMMCs on IGROV1 CR cells): 14.2 µM

Structure (SMILES): C[C@@H]1CC[C@]2(C(=O)OCC(=O)NCCO)CC[C@]3(C)C(=CCC4[C@@]5(C)CC[C@H](O)C(C)(C)C5CC[C@]43C)C2[C@H]1C (stereo partly drawn) [UAMMC5]
- toxicity (cell viability) [1]: higher toxicity

Structure (SMILES): Cc1cnc(Nc2ccc(OCCN3CCCC3)cc2)nc1Nc1cccc(S(=O)(=O)NC(C)(C)C)c1 [TG101348]
- phosphorylation of recombinant substrate STAT3 proteins by purified JAK2 [6]: decreased phosphorylation

Structure (SMILES): C[C@@H]1CC[C@]2(C(=O)OCCNC(=O)OC(C)(C)C)CC[C@]3(C)C(=CCC4[C@@]5(C)CC[C@H](O)C(C)(C)C5CC[C@]43C)C2[C@H]1C (stereo partly drawn) [UAMMC3]
- toxicity (cell viability) [1]: higher toxicity
